Results published in US20240310364A1, “TUNABLE DYNAMIC AND NON-DYNAMIC HYDROGEL SYSTEMS” (The Johns Hopkins University, priority 2021, published 2024).

What was measured:
ECFCs [1] = experiment: Inhibition studies (FI 14, GM6001, blebbistatin) in ECFC-loaded D-hydrogels; format: cell-based, human; design: ECFC aspect ratio (cell spreading) / integrin cluster size and area covered / integrin intensity and number / cellular protrusions and filopodia / sprouting: unit of the concentration uncertain; details: for vascular bed formation (tube length and volume): 3 days, blebbistatin 60 mM, FI 14 10 mM
Method: For 2D screening of the FI 14 (FI-14, R 95.0%; Sigma-Aldrich), the ECFCs were seeded into a 96-well plate at a cell density of 10000 cells/well in EGM-2 media (Lonza) with 10% FBS (Hyclone). After 1 day of culture, 100 μL of EGM-2 media containing increased concentrations of FI 14 ranging from 0 to 10 μM were added per well and culture for additional 24 hr following by staining for phospho-FAK (Tyr397;ThermoFisher Scientific) as described below. Biological triplicates were tested for each FI 14 concentrations. For inhibition studies, ECFCs were suspended in the hydrogel precursor as above with the addition of 10 mM of FI-14 (Sigma-Aldrich) or GM6001 (1 mg mL^−1; Sigma-Aldrich), 60 mM Blebbistain (Sigma-Aldrich) or vehicle control (DMSO; Sigma-Aldrich). The corresponding culture media also supplied with the corresponding inhibitor/vehicle control at the same concentration. Media was replenish every 24 h till analysis.

mUPS spheroids = experiment: Sarcoma spheroid encapsulation in hydrogels; format: cell-based, murine; details: co-encapsulated in quick-relaxing hydrogels
Method: Spheroids were formed using hanging droplet culture. Briefly, cell monolayers were grown until ˜75% confluent, rinsed with PBS, and passaged with 0.25% Trypsin-EDTA. Hanging droplets of 10,000 cells/20 μL droplet were formed on the inside of the cover of a 60 mm […]. 10 mL of PBS were placed in the bottom of the dish to act as a hydration chamber. Spheroids were cultured as hanging droplets for three days prior to encapsulation in hydrogels. 10 μl of media was added to each droplet on the second day of droplet culture.
For spheroid encapsulation, a similar protocol was followed with the adjustments for spheroids. We first collected 12 spheroids in a 1.5 mL Eppendorf tube, centrifuged for 3 minutes, and then pipetted off the media. All subsequent steps were identical to single-cell encapsulation. Cells in hydrogels were cultured under standard conditions and daily media changes of 200 μL.
Light microscopy images of encapsulated cells were recorded daily at 4×, 10×, and 20× magnifications starting at post-encapsulation (PE) Day 0. For spheroid area quantification, 10× images were grouped by individual spheroid and the area of the spheroid was manually traced in FIJI (NIH) for each day. Days 1-3 were normalized to the size of the spheroid on Day 0. […]

ECFCs [2] = experiment: Inhibition studies (FI 14, GM6001, blebbistatin) in ECFC-loaded D-hydrogels; format: cell-based, human; design: unit of the concentration uncertain; details: 0.1 (unit uncertain), versus controls
[3] = 60 (unit uncertain), 24 h, ECFCs in D-hydrogels

Structure (SMILES)	ECFC aspect ratio (cell spreading) (ECFCs [1]; 10 (unit uncertain), 24 h, versus control D-hydrogels)	sprouting (ECFCs [1]; 10 (unit uncertain), ECFCs in D-hydrogels)	phosphorylation of MLC (ECFCs [1]; 24 h, ECFCs in D-hydrogels)	integrin β1 and integrin aV mRNA expression (ECFCs [1]; 24 h, versus D-hydrogel controls)	MMP1 and MMP9 mRNA levels (ECFCs [1]; 24 h, versus untreated controls)	MT1-MMP expression at protein and mRNA levels (ECFCs [1]; 24 h in culture)	vascular bed formation (tube length and volume) (ECFCs [1]; ECFCs in D-hydrogels)	cellular protrusions and filopodia (ECFCs [1]; [3])	integrin cluster size and area covered (ECFCs [1]; [3])	integrin intensity and number (ECFCs [1]; [3])	spheroid size under contractility inhibition (mUPS spheroids)	tubulogenesis of ECFCs (ECFCs [2])	stiffness of ECFC-loaded D-hydrogels (ECFCs [1]; day 3, versus without MMP inhibitor)
Nc1cc(N)c(N)cc1N [FI 14]	cell spreading is reduced	significant reduction	reduces the phosphorylation of MLC	downregulation	significant reduction	significantly lower expression	decrease in tube length and volume						
Cc1ccc2c(c1)C(=O)C1(O)CCN(c3ccccc3)C1=N2 (centres unmarked) [blebbistatin]							shorter tube length and reduced vessel volume	decrease	significant decrease	did not affect	not sufficient to fully mirror spheroid shrinkage		
CNC(=O)[C@H](Cc1c[nH]c2ccccc12)NC(=O)[C@@H](CC(=O)NO)CC(C)C [GM6001]												inhibited	significantly stiffer
